# Laboratory results as given in ChEMBL document CHEMBL1201862, “PubChem BioAssay data set” (2004).
#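 Exposure lasted 48 hours, with cells grown in 96-well plates and compounds tested at five concentrations. Here, GI50 denotes the concentration required for 50% inhibition of growth.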 Calls of active or inactive are those of the source. Cut-off read from the data, not from the text of the source: active = GI50 up to about 1.1 µM and inactive = higher.
# Tests used:
# Assay in all cases: growth of human tumour cells (NCI), 48 h
# SK-MEL-2 = system: SK-MEL-2
# NCI-H522 = system: NCI-H522
# LXFL 529 = system: LXFL 529
# KM12 = system: KM12
# K562 = system: K562
# SF-295 = system: SF-295
# HCT-15 = system: HCT-15
# OVCAR-5 = system: OVCAR-5
# TK-10 = system: TK-10
# OVCAR-3 = system: OVCAR-3
# M14 = system: M14
# SNB-19 = system: SNB-19
# UACC-62 = system: UACC-62
# IGROV-1 = system: IGROV-1
# SR = system: SR
# COLO 205 = system: COLO 205
# PC-3 = system: PC-3
# MDA-N = system: MDA-N
SMILES,GI50 (SK-MEL-2),GI50 (NCI-H522),GI50 (LXFL 529),GI50 (KM12),GI50 (K562),GI50 (SF-295),GI50 (HCT-15),GI50 (OVCAR-5),GI50 (TK-10),GI50 (OVCAR-3),GI50 (M14),GI50 (SNB-19),GI50 (UACC-62),GI50 (IGROV-1),GI50 (SR),GI50 (COLO 205),GI50 (PC-3),GI50 (MDA-N)
CC1(C)N=C(Oc2ccccc2)n2nccc2N1,> 100 µM (inactive),40.9 µM (inactive),> 100 µM (inactive),> 100 µM (inactive),82.8 µM (inactive),> 100 µM (inactive),> 100 µM,> 100 µM (inactive),> 100 µM (inactive),> 100 µM (inactive),73.1 µM (inactive),> 100 µM (inactive),63.4 µM (inactive),> 100 µM (inactive),61.4 µM (inactive),87.1 µM (inactive),,
C=C1C(=O)C23C(O)CC4C(C)(C)CCC(O)C4(C)C2CC(OC(C)=O)C1[C@H]3O (stereo partly drawn),2.55 µM (inactive),0.123 µM (active),1.07 µM (active),15.8 µM (inactive),1.84 µM (inactive),8.05 µM (inactive),2.06 µM,9.75 µM (inactive),2.22 µM (inactive),6.18 µM (inactive),2.82 µM (inactive),8.99 µM (inactive),,4.79 µM (inactive),1.18 µM (inactive),1.98 µM (inactive),11.4 µM (inactive),7.87 µM (inactive)
